The test system of data set [1] is CYP3A. The conditions noted are these: cited from earlier work.
In data set [2] the test system is CYP2C19. The data set is described as follows: PBPK simulation of zanubrutinib as perpetrator, omeprazole. Set-up: species or system human.
In data set [3] the test system is CYP2C19. The conditions noted are these: omeprazole 20 mg with/without zanubrutinib; cited from earlier work.
Data set [4] concerns CYP3A. The conditions noted are these: midazolam 2 mg with/without zanubrutinib 160 mg b.i.d.; cited from earlier work.
Data set [5] concerns CYP3A. Put plainly: PBPK simulation of zanubrutinib as perpetrator, midazolam. Further details: species or system human.
Data set [6] concerns CYP3A. The conditions noted are these: co-administration of itraconazole; cited from earlier work.
Data set [7] has as its system CYP2C9. Put plainly: PBPK simulation of zanubrutinib as perpetrator, warfarin. Set-up: species or system human.
The test system of data set [8] is CYP2C9. The conditions noted are these: warfarin 10 mg with/without zanubrutinib; cited from earlier work.

Molecules are shown by their SMILES.

For the molecule `O=C1Nc2ccc(Cl)cc2[C@@](C#CC2CC2)(C(F)(F)F)O1` [Efavirenz], the “simulated ribociclib AUC ratio (with/without inducer)” value in data set [1] is given as 0.40.

For the molecule `COc1ccc2[nH]c([S+]([O-])Cc3ncc(C)c(OC)c3C)nc2c1` (stereo not drawn) [omeprazole], in data set [2], the “omeprazole AUC ratio observed/predicted” value is given as 0.67 and the “omeprazole Cmax ratio observed/predicted” value was 0.81. In data set [3], the “omeprazole AUC ratio, observed (90% CI)” value is on record as 0.63 (0.5–0.70) and the “omeprazole Cmax ratio, observed (90% CI)” value is given as 0.79 (0.65–0.97).

Take `Cc1ncc2n1-c1ccc(Cl)cc1C(c1ccccc1F)=NC2` [midazolam, reference compound]: in data set [4], the “midazolam AUC ratio, observed (90% CI)” value is recorded as 0.53 (0.48–0.57) and the “midazolam Cmax ratio, observed (90% CI)” value was 0.70 (0.63–0.78). Further, the “midazolam AUC ratio observed/predicted” value in data set [5] is 1.02.

On to `NC(=O)N1c2ccccc2C=Cc2ccccc21` [Carbamazepine], for which the “simulated ribociclib AUC ratio (with/without inducer)” value in data set [1] is listed as 0.48.

As for `CCC(C)n1ncn(-c2ccc(N3CCN(c4ccc(OCC5COC(Cn6cncn6)(c6ccc(Cl)cc6Cl)O5)cc4)CC3)cc2)c1=O` (stereo not drawn) [itraconazole], in data set [6], the “increase of zanubrutinib AUC0-t” value is 3.9 fold and the “increase of zanubrutinib Cmax” value is recorded as 2.6 fold.

With `CC(=O)CC(c1ccccc1)c1c(O)c2ccccc2oc1=O` (stereo not drawn) [warfarin], in data set [7], the “warfarin AUC ratio observed/predicted” value is 1.03 and the “warfarin Cmax ratio observed/predicted” value is 0.95. For the same molecule, in data set [8], the “warfarin AUC ratio, observed (90% CI)” value is listed as 1.00 (0.98–1.03) and the “warfarin Cmax ratio, observed (90% CI)” value was 0.95 (0.87–1.04).
